Assay [1] has as its system LNCaP, a prostate cancer cell line that produces PSA. Description: in vitro model: PSA-specific substrate on PSA secreting cells (FIG. 7). Format: cell-based. Particulars: serum-free media. The procedure: The LNCaP cells were incubated for 5 and 19 hours, which represented two time intervals during which the cells were to synthesize PSA, and both cell lines were transfected with SKLQ-aLuc to produce luciferase. […] (“DHT”) was used to investigate its influence on cell growth and PSA production. The cell culture media was serum-free to prevent PSA from forming complexes with various serine-protease inhibitors that are present in the serum.

The subject of the next assay is LNCaP tumor (PSA). Kind of assay: in vivo model: SCID mice bearing subcutaneous LNCaP tumor (FIG. 8). The arrangement: species or system mouse. The settings on record: FIG. 8B. The procedure:
The peptides were then tested in severe compromised immune deficiency (SCID) mice that bore an LNCaP tumor implanted at a subcutaneous site. […] The mice were injected with luciferin to localize the tumors and confirm their presence. […] The aminoluciferin released from the cleavage of the peptide by PSA is transported across the LNCaP cell membrane and reacts with luciferase to emit light. Thus, the aminoluciferyl peptide is activated by PSA and consequently can be used to target PSA producing cells in animal models.

Assay [2] relates to chymotrypsin. Description: in vivo protease assay: luc mice given substrate plus chymotrypsin injections at selected sites. The settings on record: mice expressing luc gene, further injections with chymotrypsin at selected sites. The arrangement: species or system mouse. As for the experimental part: In FIG. 4A, the pictured mouse was injected with luciferin. […] In FIG. 4B, the mice were injected with the modified substrate N-Ac-Phe-aminoluciferin. […] The dramatic reduction in signal intensity (note scales on images) on the second mouse is due to the lack of freely available substrate for the luciferase reaction. The mouse pictured on the right was subjected to further injections with chymotrypsin at selected sites. Chymotrypsin is a proteolytic enzyme that can use N-Ac-Phe-aminoluciferin as a substrate. […] The freely available aminoluciferin was then catalyzed by luciferase to generate the photons seen in the photograph. […] It can thus be observed that the use of aminoluciferin substrates results in increased versatility for in vivo assays such that protease activity can be assessed in live cells in vivo or in a test tube.
In a one embodiment of the invention, peptide sequences that are conjugated to aminoluciferin are cleaved by the protease chymotrypsin or by chymotrypsin-like proteases, such as, for example, PSA, a clinical marker for prostate cancer.

The test system of assay [3] is chymotrypsin. Description: protease assay of FIG. 3, performed in culture. Format: cell-based. The source says:
The procedure described in FIG. 2 may be used in in vivo protease assays. Naturally occurring proteases can be used to convert luciferylpeptides to aminoluciferin. These naturally occurring proteases may be associated with a physical state of the body, an organ, tissue, or cells, or may be associated with the location of particular conditions. There, the luciferylpeptide, N-Ac-Phe-aminoluciferin, was synthesized from a solution of 6-amino-2-cyanobenzothiazole, pursuant to the procedure set forth in Monsees et al., supra. […] The aminoluciferin was then available for reaction with luciferase, and in the presence of ATP and O2 in the cells, produced visible light and oxyaminoluciferin. The procedure shown in FIG. 3 was initially performed in culture and subsequently in a transgenic mouse model. This procedure can be modified by adding different compounds to the aminoluciferin, and cleaving the conjugate at the appropriate time and place with specific enzymes.

Assay [4] concerns luciferase. Description: imaging of mice expressing the luc gene after substrate injection. The assay is classed as in vivo, mouse. Particulars: substrate injected, no protease injected.
Method: In these experiments, injection of the mice with luciferin activates the luciferin-luciferase reaction and the subsequent emission of light, i.e., photons, which can be monitored outside the body using low light imaging systems, based on charge coupled device (“CCD”) cameras.
In FIG. 4A, the pictured mouse was injected with luciferin. […] In FIG. 4B, the mice were injected with the modified substrate N-Ac-Phe-aminoluciferin. […] The mouse pictured on the right was subjected to further injections with chymotrypsin at selected sites. Chymotrypsin is a proteolytic enzyme that can use N-Ac-Phe-aminoluciferin as a substrate.
Assay [5] has as its target luciferase (Photinus pyralis, UniProt P08659). The settings on record: in the presence of ATP, Mg2+/O2 and luciferase; cited from earlier work.

The star is where a group is joined. aminoluciferin = O=C(O)[C@H]1CSC(c2nc3ccc(N*)cc3s2)=N1

Chain of luciferase (Photinus pyralis, UniProt P08659) (P08659 whole entry): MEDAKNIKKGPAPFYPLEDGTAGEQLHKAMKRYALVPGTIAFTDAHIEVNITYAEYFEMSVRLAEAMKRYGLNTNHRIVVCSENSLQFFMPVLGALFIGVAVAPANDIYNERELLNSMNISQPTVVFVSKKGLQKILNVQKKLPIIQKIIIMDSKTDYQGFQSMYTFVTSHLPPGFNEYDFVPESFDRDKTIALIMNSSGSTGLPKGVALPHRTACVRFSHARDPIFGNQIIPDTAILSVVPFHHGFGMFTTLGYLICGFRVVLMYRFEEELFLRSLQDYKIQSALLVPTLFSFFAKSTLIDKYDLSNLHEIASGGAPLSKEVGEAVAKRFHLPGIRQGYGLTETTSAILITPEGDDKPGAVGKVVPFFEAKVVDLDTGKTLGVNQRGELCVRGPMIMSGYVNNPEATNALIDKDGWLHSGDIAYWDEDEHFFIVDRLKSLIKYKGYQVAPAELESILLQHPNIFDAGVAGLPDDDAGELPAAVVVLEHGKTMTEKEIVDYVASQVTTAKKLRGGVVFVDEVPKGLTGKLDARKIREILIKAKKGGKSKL

Turning to `C[C@]12CCC(=O)C[C@@H]1CC[C@@H]1[C@@H]2CC[C@]2(C)[C@@H](O)CC[C@@H]12` [DHT, Dihydroxytestosterone], in assay [1] (LNCaP/PC3M), the “influence on PSA levels” value is on record as “does not appear to influence” and the “influence on cell growth” value was “does not appear to influence”.

“Ac-Ser-Lys-Leu-Gln-aLuc (Ac-SKLQ-aminoluciferin; SMILES CC(=O)N[C@@H](CO)C(=O)N[C@@H](CCCCN)C(=O)N[C@@H](CC(C)C)C(=O)N[C@@H](CCC(N)=O)C(=O)Nc1ccc2nc(C3=N[C@@H](C(=O)O)CS3)sc2c1) [SKLQ-aLuc]”: in the assay with LNCaP tumor (PSA), the “light emission from LNCaP tumors” value is on record as “light emission from these tumors”. For the same molecule, the “amount of aminoluciferyl peptide detected in the cells versus PSA secreted” value in assay [1] (LNCaP incubated 5 and 19 hours, PC3M as non-PSA line) is given as “directly proportional to the amount of PSA secreted into the media by the LNCaP cells”.

With `CC(=O)N[C@@H](Cc1ccccc1)C(=O)Nc1ccc2nc(C3=N[C@@H](C(=O)O)CS3)sc2c1` [N-Ac-Phe-aminoluciferin], the “photon emission from the mouse after protease injection” value in the assay on chymotrypsin [2] is “only the sites where the protease enzyme was injected produced detectable signals”. Further, the “luminescence of the intact luciferylpeptide” value in the assay on chymotrypsin [3] (before addition of chymotrypsin) is “prevented from luminescing”. Further, the “cleavage of the luciferylpeptide by the protease” value in the assay with chymotrypsin [3] (upon addition of chymotrypsin) is recorded as “aminoluciferin was cleaved from the luciferylpeptide”. The “photon emission from the mouse” value in the assay with luciferase [4] is “only isolated regions of the mouse produced low level photon emission”.

For `Nc1ccc2nc(C3=N[C@@H](C(=O)O)CS3)sc2c1` [aminoluciferin, D-(−)-2-(6′-amino-2′-benzothiazolyl)-Δ^2-thiazoline-4-carboxylic Acid], the “light generation compared with luciferin” value at luciferase [5] is on record as “generates light to the same extent as does luciferin”.

Take `O=C(O)[C@H]1CSC(c2nc3ccc(O)cc3s2)=N1` [luciferin, (D)-(−)-2-(6′-Hydroxy-2′-benzothiazolyl)-2-thiazoline-4-carboxylic acid]: the “photon emission from the mouse” value in the assay on luciferase [4] is recorded as “most of the tissues of this mouse emitted visible light”.

The record behind these values is US20060073529A1, “Luciferyl peptide substrate” (priority 2004, published 2006).
